Reference: patent publication US10342806B2, “Hormone treatment for age-related hearing loss-presbycusis” (priority 2014, dated 2019)
Peptide text beside a SMILES is read from it. * marks the point of attachment. Cbz = O=C(OCc1ccccc1)*

What was measured:
Assay type in all cases: cell-based, human
LC3-I, -II, and LAMP-2 = assay: Lysosome pathway markers in HT-29 cells, Western blot; settings: ALD 1 μM, MG-132 20 μM, CQ 50 μM, 9 h
Protocol: FIG. 23(A) is a blot and showing ubiquitination, but not the lysosome pathway, is involved in the regulation of NKCC1 by ALD. To exclude the possibility that depletion of free ubiquitin by the prolonged MG-132 treatment triggered nonspecific inhibition of lysosome degradation of NKCC1 and investigate whether ALD is involved in a lysosome pathway, a parallel experiment with chloroquine (CQ) was performed. Here, the positive marks (+) indicate application of ALD (1 μM), MG132 (20 μM), CQ (50 μM), ALD+CQ, and MG132+CQ for 9 h. An autophagosome marker, autophagy-related gene 8 named as light chain 3 (LC3), and the lysosome-associated membrane protein 2 (LAMP-2) were used was indicators of lysosome pathway activation (phagocytic activity) under treatment with CQ.
(§1) Western blot. Cell lysates were prepared in RIPA buffer (Pierce 89901; Thermo Scientific, Waltham, Mass.) with protease inhibitor cocktail (78430; Thermo Scientific). Cell samples were homogenized in buffer, followed by centrifugation at 2,000 rpm for 10 min at 4° C. Supernatants were subjected to Western blot analysis by loading 200 μg of protein per lane, after the protein concentrations were determined by Bradford protein assay. Proteins were fractionated by SDS-PAGE gel electrophoresis and transferred to a PVDF blotting membrane (Whatman, Piscataway, N.J.). The blot was incubated with primary antibodies against β-actin and Na—K-2C1 cotransport protein (Cell Signaling, Danvers Mass.); primary antibodies for p-SGK1, SGK1, pNedd4-2, and Nedd4-2 were utilized (concentration 1:1,000). The secondary antibody was horseradish peroxidaseconjugated goat anti-rabbit IgG (1:2,000; Cell Signaling).
Ubiquitination, but not the lysosome pathway, is involved in NKCC1 induction by ALD. A parallel experiment was performed with chloroquine (CQ), a lysosome inhibitor, to exclude the possibility that prolonged MG-132 treatment depleted free ubiquitin by nonspecific inhibition of lysosome degradation of NKCC1 and to confirm whether or not ALD is involved in a lysosome pathway. […]

Na,K-ATPase = Na,K-ATPase mRNA expression in HT-29 cells; settings: 5 mM, 24 hr, HT-29, compared to vehicle treatment; preliminary data
Protocol: FIG. 37 is a blot showing the up-regulation of Na, K-ATPase with NH4Cl. L is the DNA ladder, C is the control (vehicle treatment), NH4CL is treatment with 5 mM NH4Cl for 24 hours.
Ammonium chloride (NH4Cl) as part of a proposed treatment of presbycusis is based on the fact that NH4Cl has been used with FDA approval as a diuretic; NH4Cl increases NKCC1 protein expression and activity in several studies in other physiological systems (Jayakumar et al. 2008; Ikebe et al. 2001); c) NH4Cl can also increase Na, K-ATPase activity (Masui et al. 2002; Garcon et al. 2007). For large doses, NH4Cl can induce metabolic acidosis, but in lower doses taken orally, there are no significant side effects in the short term.

NKCC1 [1] = assay: NKCC1 protein expression in HT-29 cells, Western blot
Text: Cell culture and buffers. […] Arch Oral Biol 52: 411-416, 2007). These include, for example, studies of COMM domain-containing protein 1, which is involved in NKCC1 ubiquitination and transcriptional regulation of epithelial Na^+ channels (ENaC) located in the apical membrane of polarized epithelial cells, in particular, cells in the colon, kidney, and lung, by ALD (Cohen, et al., Induced differentiation in HT29, a human colon adenocarcinoma cell line. J Cell Sci 112: […], 1999, Epple, et al., Early aldosterone effect in distal colon by transcriptional regulation of ENaC subunits. Am J Physiol Gastrointest Liver Physiol 278: G718-G724, 2000, Smith, et al., COMMD1 interacts with the COOH terminus of NKCC1 in Calu-3 airway epithelial cells to modulate NKCC1 ubiquitination. Am J Physiol Cell Physiol 305: C133-C146, 2013). HT-29 cells were grown in DMEM media (Invitrogen, Carlsbad Calif.) with 10% FBS and antibiotics. Cells were grown in a humidified 95%/5% CO2 incubator at 37° C. Experiments were performed at 70-80% confluence.
as §1
Statistical analysis. Images from films were imported into Adobe Photoshop (v 5.0), and further processed using Adobe Photoshop CS and ImageJ (National Institutes of Health) for the densitometry analysis. Data are reported as means±SD. Statistical analyses were performed with PRISM 4.0 (GraphPad Software, San Diego Calif.). Differences were analyzed with a one- or a two-way repeated measures ANOVA as appropriate or a two-way ANOVA followed by Bonferroni post hoc analyses that were corrected for multiple comparisons. Values of P <0.05 were considered significant.

NKCC1 [2] = assay: Tl-uptake in single HT-29 cells (FluxOR) for NKCC1 activity; settings: 24 single HT-29 cells per condition
Text: Tl-uptake in single cells for the detection of NKCC1 activity. To measure NKCC1 activity, we used a fluorescence assay to assess cotransporter activity in single isolated HT-29 cells (Delpire & Austin, Kinase regulation of Na^+—K^+-2Cl^− cotransport in primary afferent neurons. J Physiol 588: 3365-3373, 2010, Geng, et al., The Ste20 kinases SPAK and OSR1 regulate NKCC1 function in sensory neurons. J Biol Chem 284: 14020-14028, 2009, Weaver, et al., A thallium-sensitive, fluorescence-based assay for detecting and characterizing potassium channel modulators in mammalian cells. J Biomol Screen 9: 671-677, 2004). HT-29 cells were incubated at 37° C./5% CO2 for 24 h before use. […] For the detection of fluorescence, the preincubation solution was removed, and the cells were treated with a 340.5 mosM hypertonic stimulus solution containing the following (in mM): (2.8 TISO4, 140 NaCl, 2 KCl, 2 CaCl2, 0.8 MgSO4, 5 glucose, 20 HEPES, 27 sucrose, 1 ouabain, and 2.7 probenecid) in the presence or absence of 20 μM bumetanide. […] FluxOR fluorescence (excitation/emission: 488/525 nm) was recorded after 90 s upon addition of 2.8 mM […] to the external medium. […]
Influence of ALD on NKCC1 transporter activity. […] To test this hypothesis, a more efficient and sensitive method, fluorescence Ion flux assays was adopted to measure NKCC1 transporter activity. […]

NKCC1 ubiquitination = assay: Immunoprecipitation (autoubiquitination assay) of NKCC1 in HT-29 cells; settings: MG132 20 μM 2 h, then ALD 1 μM and/or GSK 650394 50 μM for 24 h
Protocol: Immunoprecipitation (autoubiquitination assay) and western blot analysis. An autoubiquitination assay was followed (Garg, et al., Effect of the Na—K-2Cl cotransporter NKCC1 on systemic blood pressure and smooth muscle tone. Am J Physiol Heart Circ Physiol 292: H2100-H2105, 2007). Cell extracts were prepared in a modified radioimmunoprecipitation assay 1 (RIPA) buffer, containing the following (in mM): 50 Tris·HCl at pH 7.4, 150 NaCl, 1 EDTA, and 1 dithiothreitol with 1% Nonidet P-40, 0.1% SDS; in a 1:200-diluted protease inhibitor cocktail (Sigma), containing the following (in mM): 1 PMSF, 10 NEM, and 0.1 iodoacetamide Immunoprecipitations were accomplished using a rabbit polyclonal anti-NKCC1 antibody (Cell Signaling). Antibody was bound to lysate with endogenous NKCC1, and then beads were added. Bound proteins were eluted in 1× SDS sample buffer, fractionated on an SDS-polyacrylamide gel, transferred onto a […] membrane (GE Healthcare, Piscataway, N.J.), and immunoblotted with anti-ubiquitin antibody visualized using enhanced chemiluminescence detection reagents (Pears, Shelton Conn.) according to the manufacturer's instructions.
Immunoblotting with anti-ubiquitin antibody was performed as described above.
ALD decreases the endogenous ubiquitination of NKCC1 and inhibition of SGK1 activation blocks this downregulation. […]

SGK1 and Nedd4-2 = SGK1 and Nedd4-2 phosphorylation in HT-29 cells, Western blot; settings: 9 h
Protocol: FIG. 25 is a blot showing ALD modulation of NKCC1 via the ALD-SGK1-Nedd4-2 pathway. HT-29 cells were treated with ALD (1 μM) or ALD (1 μM)+GSK650394 (50 μM) for 9 h. Cell lysates were analyzed by Western blot as indicated. Blots are representative of 3 independent experiments. Left: controls. Middle: ALD increases the phosphorylations of SGK1 and Nedd4-2, concomitantly there is an increased induction of NKCC1 protein expression (1st row).
as §1

## CCN(CC)CCCC(C)Nc1ccnc2cc(Cl)ccc12 (centres unmarked) [CQ, chloroquine]
LC3-I, -II, and LAMP-2
  lysosome pathway markers LC3II and LAMP-2 expression levels: significant upregulation of LC3II and LAMP-2 expression levels

## Cl.N [NH4Cl, Ammonium chloride]
Na,K-ATPase
  mRNA expression of Na,K-ATPase: enhances the mRNA expression of Na,K-ATPase

## CC(C)C[C@@H](C=O)NC(=O)[C@H](CC(C)C)NC(=O)[C@H](CC(C)C)NC(=O)OCc1ccccc1 [MG132] (Cbz-Leu-Leu-Leu-aldehyde)
NKCC1 [1]; ALD 1 μM, MG-132 20 μM, CQ 50 μM, 9 h
  induction of NKCC1 protein expression: induce NKCC1 protein expression similarly
NKCC1 [1]; MG132, ALD 1 μM, 3, 6, or 9 h
  NKCC1 protein expression: effect of ALD on NKCC1 expression was mimicked by MG132
LC3-I, -II, and LAMP-2
  lysosome pathway markers LC3II and LAMP-2 expression levels: without increasing lysosome pathway markers
NKCC1 [2]
  bumetanide-sensitive Tl+ uptake fluorescence: identical enhancements similar to the ALD treatment alone

## O=C(O)c1ccc(-c2c[nH]c3ncc(-c4ccccc4)cc23)cc1C1CCCC1 [GSK 650394]
NKCC1 [1]; ALD 1 μM + GSK 650394 50 μM, 9 h
  NKCC1 protein expression with ALD in the presence of SGK1 inhibitor: did not increase protein expression of NKCC1
NKCC1 ubiquitination
  endogenous ubiquitinated NKCC1: reduces the ability of ALD to suppress NKCC1 ubiquitination
SGK1 and Nedd4-2; ALD 1 μM + GSK 650394 50 μM
  total protein expressions of SGK1 and Nedd4-2: showed no differences
SGK1 and Nedd4-2; ALD 1 μM, GSK 650394 50 μM
  phosphorylation of SGK1 and Nedd4-2: blocked phosphorylation of SGK1 and Nedd4-2

## COC(=O)[C@@H]1CC2=CC(=O)CC[C@]2(C)[C@@]23O[C@@H]2C[C@@]2(C)[C@@H](CC[C@@]24CCC(=O)O4)[C@H]13 [eplerenone]
NKCC1 [1]; simultaneous ALD (1 μM) and eplerenone (20 μM)
  effect on ALD upregulation of NKCC1 protein expression: prevented the ALD upregulation of NKCC1 protein expression
